Source: article PMC6925493, “Casticin inhibits nasopharyngeal carcinoma growth by targeting phosphoinositide 3-kinase” (Cancer Cell International, 2019)

Legend:
HONE1 and CNE1 = assay: Viability assay, response to BYL719; format: cell-based; conditions: 1 µM BYL719, 72 h
Procedure: (§1) The effects of casticin on the growth of the 12 cell lines were determined using the Cell Counting Kit-8 (CCK-8) assay (Dojindo, Japan). Briefly, cells were plated in 96-well plates at 4 × 10^3 cells/well in 100 μL and were treated with a gradient of casticin concentrations (0, 1, 2, 4, 8 µM). After incubation for 24, 48, or 72 h, 10 μL of the CCK-8 reagent was added into each well, and the plate was incubated for an additional 1 or 2 h. Next, a microplate reader (Bio-Rad, model 550) was used to detect absorbance at 490 nm in each well. We repeated the experiments three times. Cell viability was calculated using the following formula: […].
To identify BYL719-insensitive NPC cell lines, the response of 12 NPC cell lines to BYL719 was screened by viability assay (Fig. 5a). […] Only two NPC cell lines, HONE1 and CNE1, were sensitive to 1 µM BYL719 after 72 h (Fig. 5a). Both sensitive cell lines increased S-phase arrest and apoptosis rates (as measured by AV staining) compared with the those in the BYL719-insensitive cell lines (Fig. 5b, c). We studied PI3K signalling in three resistant (S18, C666-1 and HONE-EBV+) (Fig. 5d) and two sensitive cell lines (HONE1 and CNE1) after treatment with a gradient of BYL719 concentrations (Fig. 5e). […]

p110α = system: p110α; design: method as in PMID 23903756; conditions: 1 μM; cited from earlier work
[1] = system: PI3K/AKT/mTOR signalling pathway; assay: Western blotting, PI3K/AKT/mTOR signalling in S18 and C666-1; format: cell-based
Text: (§2) We used standard approaches and methods for Western blotting (WB) analyses. In brief, nasopharyngeal carcinoma cells were lysed on ice in Pierce RIPA buffer (Thermo Scientific) containing a Halt protease inhibitor cocktail (Sigma-Aldrich) and phosphatase inhibitors (Keygen Biotech). We measured protein concentration using a Beyotime protein assay protocol following the manufacturer’s instructions. Proteins were separated by using sodium dodecyl sulfate polyacrylamide gel electrophoresis and were then transferred to polyvinylidene difluoride membranes (0.45 µm; Millipore). […] The total S6, AKT, and mTOR antibodies were used on the same blots as the respective phosphorylated proteins after stripping (stripping buffer, CWBIO, China). All primary antibodies were diluted in Tris-buffered saline containing Tween 20 and 5% bovine serum albumin (BSA), and a peroxidase conjugate (Bioworld) was used as the secondary antibody. Anti-β-actin (20536-I, Proteintech) was used as a loading control. Immuno-reactive bands were visualized using an enhanced chemo-luminescence kit (Thermo Fisher Scientific), and images were captured using a ChemiDoc™ XRS molecular imager (Bio-Rad). Densitometry of band intensity was performed using ImageJ software.

[2] = system: phosphorylation of S6, AKT and mTOR; assay: Western blotting, PI3K signalling after BYL719 in sensitive and resistant cell lines; format: cell-based; conditions: sensitive cells (HONE1, CNE1) compared to resistant cells (S18, C666-1, HONE-EBV+)
Text: as §2, with “All primary antibodies were diluted in Tris-buffered saline containing Tween 20 and 5% bovine serum albumin (BSA), and a peroxidase conjugate (Bioworld) was used as the secondary antibody. Anti-β-actin (20536-I, Proteintech) was used as a loading control.” left out, “Densitometry of band intensity was performed using ImageJ software.” left out
To identify BYL719-insensitive NPC cell lines, the response of 12 NPC cell lines to BYL719 was screened by viability assay (Fig. 5a). […] Both sensitive cell lines increased S-phase arrest and apoptosis rates (as measured by AV staining) compared with the those in the BYL719-insensitive cell lines (Fig. 5b, c). […]

[3] = system: normal nasopharyngeal mucosal epithelial cell line NP69; assay: CCK-8 cell viability assay, NP69; format: cell-based; conditions: NP69 cells
Procedure: as §1

Nanog, sox2, and Oct4 = assay: Western blotting, stem cell markers; format: cell-based; conditions: C666-1; 0, 4, 8, 16 µM; 24 h; dose-dependent
Text: as §2

S18 cells [4] = assay: Cell cycle analysis by flow cytometry, S18; format: cell-based; conditions: 8 µM casticin for 24 h
Procedure: (§3) S18 and C666-1 cells were treated with 0, 2, 4, and 8 µM casticin for 24 h. The cells were then collected, washed with phosphate-buffered saline (PBS), and fixed with 75% ethanol overnight. Subsequently, the cells were centrifuged (1500 rpm, 5 min) and incubated with 10 mg/mL RNase and 1 mg/mL propidium iodide (PI) at 37 °C for 30 min in the dark. Finally, we analysed cell cycle distribution by using flow cytometry (FACSCalibur; BD Biosciences, Bedford, MA, USA).

S18 cells [5] = assay: Colony formation assay; format: cell-based
Procedure: S18 and C666-1 cells were incubated in 6-well plates with either 0, 1, 2, and 4 µM casticin for 12 h with 1 µM casticin for 0, 6, 12, and 24 h. There after, 500 cells were seeded in each well of a 6-well plate and cultured without casticin for 8–10 days. Subsequently, the cells were fixed with methanol and stained with haematoxylin. After washing and drying, colonies with more than 50 cells were counted under a microscope (Leica, Wetzlar, Germany).

BCL-2, BAX, p21 = assay: Western blotting, cell cycle and apoptosis related proteins; format: cell-based
Text: as §2

[6] = system: PI3K family, including wild-type and mutant kinases; assay: KINOMEscan binding to PI3K family; design: species or system human; conditions: 10 μM
Procedure: (§4) Selectivity profiling of casticin against a selected panel of 468 kinases distributed throughout the kinome was performed by DiscoverRx (http://www.discoverx.com/home) using the KINOMEscan screening platform at a test concentration of 10 μM. Since KINOMEscan is a binding assay and may not reflect the inhibitory activity of a compound, the binding constant (Kd) of casticin was calculated from a standard dose–response curve using the Hill equation: Response = Background + (Signal − Background)/[1 + (Kd^Hill Slope/Dose^Hill Slope)]. We then tested casticin in the SelectScreen assay (Invitrogen, USA) to calculate the IC50 of casticin that directly targeted the active site of ATP in PI3K kinase.

panel of 468 kinases = assay: KINOMEscan selectivity profiling; format: binding, human; conditions: 10 μM
Procedure: as §4

C666-1 cells [7] = assay: C666-1 xenograft mouse model; format: in vivo, nude mice; conditions: 40 mg/kg daily i.p.
Procedure: (§5) Generation and characterization of the xenograft mouse model were conducted in accordance with the guidelines of the Ministry of Science and Technology of China and were approved by the Animal Ethics Committee of Southern Medical University. All efforts were made to minimize animal suffering during the experiments. Five-week-old nude mice were obtained from the Guangdong Experimental Animal Ccenter. To assess the tumour growth, 5 × 10^6 S18 cells and 1 × 10^7 C666-1 cells were injected subcutaneously into the left or right side of the back of each mouse (three mice per group). When tumours reached approximately 100 mm^3, the mice were randomized to the control and casticin treatment groups. Casticin was diluted in 10% DMSO in normal saline (NS) and injected intraperitoneally at 40 mg/kg daily, while the control group received only NS vehicle. Tumour sizes were measured with a caliper and recorded every 3 days. Tumour volume was calculated as follows: tumour volume = (length × width^2) × 0.5. Body weight was recorded every 2–3 days during the treatment, and the tumour weight was measured at the end of the experiment.

[8] = molecular target: T1, PIK3CA ( p110 alpha/p85 alpha ) (Homo sapiens, UniProt P42336); assay: SelectScreen biochemical kinase activity assay
T1 construct: purchased Invitrogen (SelectScreen service)
Procedure: as §4

[9] = molecular target: T2, PIK3CA/PIK3R3 (p110a/p55 gamma) (Homo sapiens, UniProt P42336); assay: SelectScreen biochemical kinase activity assay
T2 construct: purchased Invitrogen (SelectScreen service)
Procedure: as §4

[10] = molecular target: T3, PIK3CA E545K/PIK3R1 (p110 alpha E545K/p85 alpha) (Homo sapiens, UniProt P42336, E545K); assay: SelectScreen biochemical kinase activity assay
T3 construct: purchased Invitrogen (SelectScreen service)
Procedure: as §4

[11] = molecular target: T4, PIK3CA E542K/PIK3R1 (p110 alpha/p85 alpha) (Homo sapiens, UniProt P42336, E542K); assay: SelectScreen biochemical kinase activity assay
T4 construct: purchased Invitrogen (SelectScreen service)
Procedure: as §4

S18 cells [12] = assay: Transwell migration assay; format: cell-based; conditions: concentration-dependent
S18 cells [13] = assay: Annexin V/PI staining assay; format: cell-based; conditions: 48 h
Procedure: For the apoptosis test, S18 and C666-1 cells were treated with casticin at concentrations of 0, 1, 2, and 4 µM and of 0, 2, 4, and 8 µM for 48 h. Next, cells were collected and washed once with PBS. After centrifugation (1500 rpm, 5 min), cells were resuspended in 1× annexin V (AV) binding buffer and incubated with 5 µL of AV and PI at 37 °C for 30 min. Cell apoptosis was evaluated by using flow cytometry (FACSCalibur).

NPC cell lines = assay: CCK-8 cell viability assay, NPC cell lines; format: cell-based
Procedure: as §1

S18 and C666-1 cells = assay: Wound-healing assay; format: cell-based; conditions: vs cells not treated
Procedure: We seeded S18 and C666-1 cells in 6-well plates at 80% to 90% confluence. After a 24-h incubation period, cells were wounded by using a 0.2-mL pipette tip to scratch the subconfluent cell monolayer. Then, we removed the detached cells by washing with PBS just before casticin 16 µM was added to each well of the plate. Cells were maintained in serum-free medium and allowed to migrate for 24 h. An inverted microscope was used to capture cell migration images after 24 h. The speed of migration was determined by dividing the length of the gap and the wound areas in the resultant images.

S18 cells [14] = assay: S18 xenograft mouse model; format: in vivo, nude mice
Procedure: as §5

[15] = system: S18, CNE2, C666-1 tumour spheres; assay: 3D tumour sphere formation assay; format: cell-based; conditions: 20 µM casticin for 72 h; vs untreated spheres
Procedure: S18, CNE2, and C666-1 cells (2 × 10^4 each) were cellected, counted and seeded into a cell culture flask with a novel 3D tumour sphere culture system. The 3D tumour sphere culture system with NPC cells was cultured at 37 °C in a humid atmosphere with 5% CO2, the diameters of tumour spheroids were measured when the tumour sphere diameter was ≥ […] [15] and then incubated with 20 µM casticin for 72 h, the original medium was discarded, the cells were cultured for approximately 1 week, and the tumour spheres that were ≥ 100 µm in diameter were counted under a bright field microscope.

C666-1 cells [16] = assay: Cell cycle analysis by flow cytometry, C666-1; format: cell-based; conditions: 8 µM casticin for 24 h
Procedure: as §3

[17] = read-out: Inhibited kinase activity(%) at 1μM of Casticin
[18] = 40 mg/kg daily i.p., vs NS group

T3 sequence (P42336 whole entry E545K): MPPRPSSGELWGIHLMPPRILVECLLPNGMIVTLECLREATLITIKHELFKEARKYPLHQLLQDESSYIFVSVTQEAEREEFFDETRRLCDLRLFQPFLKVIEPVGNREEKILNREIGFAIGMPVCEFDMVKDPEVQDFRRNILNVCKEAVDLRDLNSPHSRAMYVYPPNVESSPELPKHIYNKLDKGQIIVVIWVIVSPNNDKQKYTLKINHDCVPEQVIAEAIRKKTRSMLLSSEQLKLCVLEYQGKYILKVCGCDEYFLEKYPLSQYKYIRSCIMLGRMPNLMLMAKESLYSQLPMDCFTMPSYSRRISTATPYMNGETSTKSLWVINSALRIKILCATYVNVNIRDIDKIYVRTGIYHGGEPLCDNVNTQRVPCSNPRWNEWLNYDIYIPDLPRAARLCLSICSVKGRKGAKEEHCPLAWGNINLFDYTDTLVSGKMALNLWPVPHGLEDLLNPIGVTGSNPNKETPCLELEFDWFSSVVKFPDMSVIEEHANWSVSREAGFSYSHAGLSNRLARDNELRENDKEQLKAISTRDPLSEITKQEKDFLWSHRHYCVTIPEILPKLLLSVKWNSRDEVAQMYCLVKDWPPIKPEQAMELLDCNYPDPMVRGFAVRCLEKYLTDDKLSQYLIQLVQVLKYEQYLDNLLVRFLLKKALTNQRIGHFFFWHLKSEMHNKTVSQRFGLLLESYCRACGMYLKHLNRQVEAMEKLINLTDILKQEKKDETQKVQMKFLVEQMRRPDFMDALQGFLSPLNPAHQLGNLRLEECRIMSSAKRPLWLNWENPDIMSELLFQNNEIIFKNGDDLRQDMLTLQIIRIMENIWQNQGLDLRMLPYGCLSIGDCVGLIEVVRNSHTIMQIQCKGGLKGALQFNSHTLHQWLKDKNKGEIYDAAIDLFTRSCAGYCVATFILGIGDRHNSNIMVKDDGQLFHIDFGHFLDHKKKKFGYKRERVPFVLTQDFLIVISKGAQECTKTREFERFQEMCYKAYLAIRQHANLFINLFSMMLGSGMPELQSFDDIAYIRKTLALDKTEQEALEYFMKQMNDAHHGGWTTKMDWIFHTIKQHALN
T3 sequence (P27986 whole entry partner): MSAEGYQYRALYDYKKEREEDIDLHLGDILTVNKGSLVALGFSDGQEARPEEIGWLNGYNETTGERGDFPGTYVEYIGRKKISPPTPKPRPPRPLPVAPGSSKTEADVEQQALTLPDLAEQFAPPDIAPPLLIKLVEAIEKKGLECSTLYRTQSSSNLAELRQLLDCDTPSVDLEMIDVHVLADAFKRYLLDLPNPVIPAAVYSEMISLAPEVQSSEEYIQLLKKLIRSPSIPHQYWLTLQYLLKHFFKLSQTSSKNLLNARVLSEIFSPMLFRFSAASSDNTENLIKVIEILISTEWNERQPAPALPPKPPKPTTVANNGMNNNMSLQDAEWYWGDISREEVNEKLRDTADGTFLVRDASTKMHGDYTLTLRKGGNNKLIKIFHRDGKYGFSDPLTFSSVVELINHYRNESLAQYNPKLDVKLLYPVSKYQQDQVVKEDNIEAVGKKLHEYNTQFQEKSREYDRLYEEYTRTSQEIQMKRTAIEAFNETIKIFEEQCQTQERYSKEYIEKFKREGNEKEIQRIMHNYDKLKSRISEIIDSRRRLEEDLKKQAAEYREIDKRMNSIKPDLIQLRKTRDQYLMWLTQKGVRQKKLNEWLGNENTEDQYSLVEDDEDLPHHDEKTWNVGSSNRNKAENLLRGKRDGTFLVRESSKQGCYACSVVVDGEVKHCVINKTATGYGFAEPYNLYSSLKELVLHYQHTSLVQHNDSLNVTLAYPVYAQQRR
T4 sequence (P42336 whole entry E542K): as the sequence (P42336 whole entry E545K) above, with E542K, K545E counted along it
T4 sequence (P27986 whole entry partner): as the sequence (P27986 whole entry partner) above
T2 sequence (P42336 whole entry): as the sequence (P42336 whole entry E545K) above, with K545E counted along it
T1 sequence (P42336 whole entry): as the sequence (P42336 whole entry E545K) above, with K545E counted along it
T1 sequence (P27986 whole entry partner): as the sequence (P27986 whole entry partner) above

SMILES: Cc1nc(NC(=O)N2CCC[C@H]2C(N)=O)sc1-c1ccnc(C(C)(C)C(F)(F)F)c1 [BYL719]
- sensitivity class by viability (IC50 cut-off 1 μM) (HONE1 and CNE1): sensitive
- block of p110 subunits (p110α): blocked p110α without affecting the other p110 subunits
- phosphorylation of ATK (Ser473 and Thr308) or mTORC1 ([1]; BYL719 1 µM alone, 12 h): did not reduce
- phosphorylation of S6, AKT and mTOR [2]: significantly reduced

SMILES: COc1ccc(-c2oc3cc(OC)c(OC)c(O)c3c(=O)c2OC)cc1O [casticin, 3′,5-dihydroxy-3,4′,6,7-tetramethoxyflavone]
- effect on cell growth compared to BYL719 [3]: less effective
- cell viability ([3]; gradient of concentrations, 24, 48, 72 h): resistant
- expression of tumour stemness markers Nanog, sox2, Oct4 (Nanog, sox2, and Oct4): reduced expression
- percentage of cells in the G2/M phase (S18 cells [4]): 62.90 ± 1.97%
- clonogenic ability (S18 cells [5]; 1 µM casticin, vs control group): diminished as early as 6 h
- clonogenic activity (S18 cells [5]; S18 cells, 0, 1, 2, 4 µM for 12 h): significant reduction
- p21 expression (BCL-2, BAX, p21; S18 and C666-1, 24 h): increased
- BCL-2/BAX ratio (BCL-2, BAX, p21; casticin-treated S18 and C666-1 cells): significantly decreased in a dose-dependent manner
- percent control number [6]: less than 1
- S score (1) (panel of 468 kinases): 0.01
- binding to other kinases (panel of 468 kinases; KINOMEscan): did not demonstrate strong binding
- tumour growth and liver/kidney histology in C666-1 in vivo model (C666-1 cells [7]): findings similar to those with the S18 model
- IC50 ([8]; PI3K (p110α/p85α)): 616 nM
- inhibition at 1 µM [8, 17]: 56%
- IC50 [9]: 574 nM
- inhibition at 1 µM [9, 17]: 46%
- IC50 [10]: 544 nM
- inhibition at 1 µM [10, 17]: 54%
- IC50 [11]: 306 nM
- inhibition at 1 µM [11, 17]: 57%
- number of migrating cells (S18 cells [12]): significantly reduced
- early and late apoptosis (S18 cells [13]; 1 μM): significantly increased
- apoptotic frequency (S18 cells [13]; 4 μM): approximately 75%
- phosphorylation of AKT (T308, S473) and mTOR (Ser2481, Ser2448) ([1]; 24 h, increasing casticin concentrations, dose-dependent): significant reduction
- IC50 on viability compared with BYL719 (NPC cell lines; 12 NPC cell lines, 24 h): lower than that of BYL719
- cell viability (NPC cell lines; eleven NPC cell lines, gradient of concentrations, 24, 48, 72 h, concentration-dependent): decreased
- gap-closing speeds (S18 and C666-1 cells): significantly decreased
- damage to the liver or kidney (haematoxylin and eosin histopathology) (S18 cells [14]; 40 mg/kg daily i.p.): without any obvious subsequent damage to the liver or kidney
- tumour size (S18 cells [14]; 40 mg/kg daily i.p. for 12 days, 18 days after implantation): smaller than those in the control group
- tumour growth rate (tumour volume) (S18 cells [14]; [18]): lower than NS group
- tumour weight (S18 cells [14]; [18]): lighter than NS group
- ratios of liver and kidney weight to body weight (S18 cells [14]; S18 model, 40 mg/kg daily i.p.): not statistically significant between groups
- tumour sphere growth [15]: significant reduction in tumour growth
- percentage of cells in the G2/M phase (C666-1 cells [16]): 62.54 ± 4.91%
